Data set [1] relates to Alzheimer's disease patients. The following applies: Bodick et al. 1997; cited from earlier work.
Data set [2] deals with patients. The following applies: patients treated with AChE inhibitor; cited from earlier work.
The target of data set [3] is T1, Human M4 (Homo sapiens, UniProt P08173).
T1 construct: expressed in transfected cells
T1 sequence (P08173 1-479): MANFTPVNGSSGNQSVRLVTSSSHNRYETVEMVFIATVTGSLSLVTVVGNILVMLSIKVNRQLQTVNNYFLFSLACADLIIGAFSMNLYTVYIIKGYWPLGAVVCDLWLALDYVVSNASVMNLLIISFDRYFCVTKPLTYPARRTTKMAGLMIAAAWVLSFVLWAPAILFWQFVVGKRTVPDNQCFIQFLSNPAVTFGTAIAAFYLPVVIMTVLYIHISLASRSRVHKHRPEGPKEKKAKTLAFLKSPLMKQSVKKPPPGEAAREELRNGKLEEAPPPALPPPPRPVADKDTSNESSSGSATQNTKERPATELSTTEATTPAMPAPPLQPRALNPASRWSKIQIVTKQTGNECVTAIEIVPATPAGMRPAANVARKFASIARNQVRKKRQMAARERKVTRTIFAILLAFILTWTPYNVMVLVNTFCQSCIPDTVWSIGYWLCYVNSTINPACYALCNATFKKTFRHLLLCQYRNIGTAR
The data set is described as follows: mAChR M4 cell-based functional assay (calcium flux, potentiation of EC20 acetylcholine response), hM4-Gqi5 CHO-K1 cells. The note with it: for Emax at 30 µM: CHO-K1, % ACh maximum at 30 μM; for EC50: calcium flux, read-out: Human M4 EC50. In a few lines: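 Positive allosteric modulation was scored as a concentration-dependent rise in the response to an EC20 dose of acetylcholine, added 144 s after the compound. Human M4-Gqi5 CHO-K1 cells carried Fluo-4 dye, and compounds ran as 11-point, 3-fold dilution series. EC50 and Emax came from four-parameter logistic fits of the FDSS fluorescence-ratio traces.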

Setting [4] is: hM4-Gqi5 CHO-K1 cells, PAM of EC20 acetylcholine.
Where [5] appears, read: Table 4, Human M4, read-out: Emax (% ACh maximum at 30 μM).
The mark [6] stands for this setting: Table 4, potentiation of EC20 acetylcholine response, CHO-K1 cells.
Setting [7] is: Table 3, Human M4, read-out: Emax (% ACh maximum at 30 μM).
Setting [8] is: Table 3, potentiation of EC20 acetylcholine response, CHO-K1 cells.

Where two headings read alike, the source gives them in different places.

For `CCCCCCOc1nsnc1C1=CCCN(C)C1` [xanomeline], in data set [1], the “effect on psychotic behavioral symptoms” value was “reduce psychotic behavioral symptoms”.
In the case of `Nc1c2c(nc3ccccc13)CCCC2` [tacrine], in data set [2], the “elevated liver transaminases, share of patients” value was “about 30%”.
Take `Cc1nn(C)c(C)c1-c1cnc2c(c1)CN(c1nn3c(C)nnc3c(C)c1C)CC2` [Compound 87, 3-(1,3,5-trimethylpyrazol-4-yl)-6-(3,7,8-trimethyl-[1,2,4]triazolo[4,3-b]pyridazin-6-yl)-7,8-dihydro-5H-1,6-naphthyridine]: the Emax at 30 µM in data set [3] (human M4, read-out: Emax) came to 89%. In addition, the EC50 in data set [3] (setting [4]) turned out to be 188 nM.
On to `[2H]C1([2H])Cc2ncc(Nc3ccccc3F)cc2C([2H])([2H])N1c1nn2cnnc2cc1C` [Compound 359, N-(2-fluorophenyl)-6-(7-methyl-[1,2,4]triazolo[4,3-b]pyridazin-6-yl)-5,6,7,8-tetrahydro-1,6-naphthyridin-5,5,7,7-d4-3-amine], for which the Emax at 30 µM in data set [3] (setting [5]) amounted to 116%. Also, the concentration giving a half-maximal response (EC50) in data set [3] (setting [6]) was 7 nM.
Turning to `Cc1c(N2CCc3ncc(C(=O)NCc4cncs4)cc3C2)nn2cnnc2c1C` [Compound 118, 6-(7,8-Dimethyl-[1,2,4]triazolo[4,3-b]pyridazin-6-yl)-N-(thiazol-5-ylmethyl)-7,8-dihydro-5H-1,6-naphthyridine-3-carboxamide], the maximum response (Emax) at 30 µM in data set [3] (human M4, read-out: Emax) is 99%. Further, in data set [3] (setting [4]), the concentration for a half-maximal effect (EC50) worked out at 707 nM.
Taken in the same sequence, the figures for `[2H]c1nnc2c(C)c(C)c(N3CCc4ncc(Nc5cc(F)ccc5F)cc4C3)nn12` [Compound 72, 6-(3-deuterio-7,8-dimethyl-[1,2,4]triazolo[4,3-b]pyridazin-6-yl)-N-(2,5-difluorophenyl)-7,8-dihydro-5H-1,6-naphthyridin-3-amine] were 97% and 49.7 nM.
Turning to `Cc1c(N2CCc3ncc(-c4ccc(N(C)C)nc4)cc3C2)nn2cnnc2c1C` [Compound 180, 5-(6-(7,8-dimethyl-[1,2,4]triazolo[4,3-b]pyridazin-6-yl)-5,6,7,8-tetrahydro-1,6-naphthyridin-3-yl)-N,N-dimethylpyridin-2-amine], the Emax at 30 µM in data set [3] (setting [7]) is 74%. The EC50 in data set [3] (setting [8]) is 284 nM.
With `Cc1c(N2CCc3ncc(-c4cnn(C)c4)cc3C2)nn2cnnc2c1C` [Compound 112, 6-(7,8-dimethyl-[1,2,4]triazolo[4,3-b]pyridazin-6-yl)-3-(1-methylpyrazol-4-yl)-7,8-dihydro-5H-1,6-naphthyridine], the Emax at 30 µM in data set [3] (human M4, read-out: Emax) was 101%. In data set [3] (setting [4]), the EC50 was 124 nM.
Take `COc1ccc(-c2cnc3c(c2)CN(c2nn4cnnc4cc2C)CC3)cn1` [Compound 202, 3-(6-methoxypyridin-3-yl)-6-(7-methyl-[1,2,4]triazolo[4,3-b]pyridazin-6-yl)-5,6,7,8-tetrahydro-1,6-naphthyridine]: in data set [3] (setting [7]), the Emax at 30 µM amounted to 95%. Further, the concentration for a half-maximal effect (EC50) in data set [3] (setting [8]) worked out at 227 nM.
With `Cc1c(N2CCc3ncc(Nc4cc(Cl)ccc4F)cc3C2)nn2cnnc2c1C` [Compound 34, N-(5-chloro-2-fluoro-phenyl)-6-(7,8-dimethyl-[1,2,4]triazolo[4,3-b]pyridazin-6-yl)-7,8-dihydro-5H-1,6-naphthyridin-3-amine], in data set [3] (human M4, read-out: Emax), the maximum response (Emax) at 30 µM was found to be 93%. In addition, the concentration giving a half-maximal response (EC50) in data set [3] (setting [4]) was 562 nM.
`Cc1c(N2CCc3ncc(-c4cccnc4C(F)(F)F)cc3C2)nn2cnnc2c1C` [Compound 172, 6-(7,8-dimethyl-[1,2,4]triazolo[4,3-b]pyridazin-6-yl)-3-(2-(trifluoromethyl)pyridin-3-yl)-5,6,7,8-tetrahydro-1,6-naphthyridine]: the maximal effect (Emax) at 30 µM in data set [3] (setting [7]) is 73%. The concentration giving a half-maximal response (EC50) in data set [3] (setting [8]) is 3530 nM.
As to `Cc1cc2cncn2nc1N1CCc2ncc(-c3cn(C)nc3C)cc2C1` [Compound 342, 3-(1,3-dimethyl-1H-pyrazol-4-yl)-6-(3-methylimidazo[1,5-b]pyridazin-2-yl)-5,6,7,8-tetrahydro-1,6-naphthyridine], the Emax at 30 µM in data set [3] (setting [5]) came to 81%. Besides, the half-maximal effective concentration (EC50) in data set [3] (setting [6]) was 492 nM.
Take `CCn1ccc(-c2cnc3c(c2)CN(c2nn4cnnc4cc2C)CC3)n1` [Compound 130, 3-(1-ethylpyrazol-3-yl)-6-(7-methyl-[1,2,4]triazolo[4,3-b]pyridazin-6-yl)-7,8-dihydro-5H-1,6-naphthyridine]: in data set [3] (human M4, read-out: Emax), the Emax at 30 µM stood at 93%.
As for `Cc1cc2nncn2nc1N1CCc2ncc(-c3cc(-c4ccccc4)no3)cc2C1` [Compound 133, 5-[6-(7-methyl-[1,2,4]triazolo[4,3-b]pyridazin-6-yl)-7,8-dihydro-5H-1,6-naphthyridin-3-yl]-3-phenyl-isoxazole], the Emax at 30 µM in data set [3] (human M4, read-out: Emax) was 68%. The half-maximal effective concentration (EC50) in data set [3] (setting [4]) was determined as 1340 nM.
In the case of `Cc1cc2nncn2nc1N1CCc2ncc(Nc3nsc4ncccc34)cc2C1` [Compound 203, N-(6-(7-methyl-[1,2,4]triazolo[4,3-b]pyridazin-6-yl)-5,6,7,8-tetrahydro-1,6-naphthyridin-3-yl)isothiazolo[5,4-b]pyridin-3-amine], the maximum response (Emax) at 30 µM in data set [3] (setting [7]) came to 35%. Further, the 50% effective concentration (EC50) in data set [3] (setting [8]) is 82 nM.
On to `Cc1c(N2CCc3ncc(-c4ccnn4C)cc3C2)nn2c(C(F)(F)F)nnc2c1C` [Compound 251, 6-(7,8-dimethyl-3-(trifluoromethyl)-[1,2,4]triazolo[4,3-b]pyridazin-6-yl)-3-(1-methyl-1H-pyrazol-5-yl)-5,6,7,8-tetrahydro-1,6-naphthyridine], for which the maximal effect (Emax) at 30 µM in data set [3] (setting [7]) turned out to be 83%. The EC50 in data set [3] (setting [8]) worked out at 169 nM.
In the case of `Cc1c(N2CCc3ncc(-c4cncs4)cc3C2)nn2c(C(F)(F)F)nnc2c1C` [Compound 96, 5-[6-[7,8-dimethyl-3-(trifluoromethyl)-[1,2,4]triazolo[4,3-b]pyridazin-6-yl]-7,8-dihydro-5H-1,6-naphthyridin-3-yl]thiazole], the Emax at 30 µM in data set [3] (human M4, read-out: Emax) was found to be 97%. For the same compound, the half-maximal effective concentration (EC50) in data set [3] (setting [4]) amounted to 106 nM.
Turning to `Cc1c(N2CCc3ncc(C(F)c4ccccc4)cc3C2)nn2c(C(F)(F)F)nnc2c1C` (stereo not shown) [Compound 285, 6-(7,8-dimethyl-3-(trifluoromethyl)-[1,2,4]triazolo[4,3-b]pyridazin-6-yl)-3-(fluoro(phenyl)methyl)-5,6,7,8-tetrahydro-1,6-naphthyridine], the maximal response (Emax) at 30 µM in data set [3] (setting [7]) was determined as 88%. Moreover, the half-maximal effective concentration (EC50) in data set [3] (setting [8]) amounted to 1060 nM.
Regarding `Cc1c(N2CCc3ncc(-c4cnn(C5CCCCC5)c4)cc3C2)nn2cnnc2c1C` [Compound 20, 3-(1-cyclohexylpyrazol-4-yl)-6-(7,8-dimethyl-[1,2,4]triazolo[4,3-b]pyridazin-6-yl)-7,8-dihydro-5H-1,6-naphthyridine], the maximal response (Emax) at 30 µM in data set [3] (human M4, read-out: Emax) stood at 71%. The EC50 in data set [3] (setting [4]) worked out at 331 nM.
Take `Cc1c(N2CCc3ncc(-c4ccns4)cc3C2)nn2cnnc2c1C` [Compound 19, 5-[6-(7,8-dimethyl-[1,2,4]triazolo[4,3-b]pyridazin-6-yl)-7,8-dihydro-5H-1,6-naphthyridin-3-yl]isothiazole]: in data set [3] (human M4, read-out: Emax), the Emax at 30 µM was 106%. Besides, in data set [3] (setting [4]), the concentration giving a half-maximal response (EC50) was 49.3 nM.
With `Cc1c(N2CCc3ncc(-c4ccc(N(C)C)nc4)cc3C2)nn2c(C(F)(F)F)nnc2c1C` [Compound 241, 5-(6-(7,8-dimethyl-3-(trifluoromethyl)-[1,2,4]triazolo[4,3-b]pyridazin-6-yl)-5,6,7,8-tetrahydro-1,6-naphthyridin-3-yl)-N,N-dimethylpyridin-2-amine], the maximal response (Emax) at 30 µM in data set [3] (setting [7]) came to 61%. Also, in data set [3] (setting [8]), the EC50 amounted to 1230 nM.
In the case of `Cc1c(N2CCc3ncc(-c4ccc(N5CCCC(F)C5)nc4)cc3C2)nn2cnnc2c1C` (stereo not shown) [Compound 216, 6-(7,8-dimethyl-[1,2,4]triazolo[4,3-b]pyridazin-6-yl)-3-(6-(3-fluoropiperidin-1-yl)pyridin-3-yl)-5,6,7,8-tetrahydro-1,6-naphthyridine], the Emax at 30 µM in data set [3] (setting [7]) came out at 82%. Moreover, in data set [3] (setting [8]), the EC50 worked out at 224 nM.
Consider `COc1ccc(Oc2cnc3c(c2)CN(c2nn4cnnc4c(C)c2C)CC3)cc1Cl` [Compound 11, 3-(3-chloro-4-methoxy-phenoxy)-6-(7,8-dimethyl-[1,2,4]triazolo[4,3-b]pyridazin-6-yl)-7,8-dihydro-5H-1,6-naphthyridine], for which, in data set [3] (human M4, read-out: Emax), the Emax at 30 µM turned out to be 57%. For the same compound, the EC50 in data set [3] (setting [4]) was 1040 nM.
